PubChem BioAssay (NCI)
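Briefly, cells in 96-well plates were exposed to five compound concentrations for 48 h, and endpoints were estimated by linear interpolation. TGI denotes the concentration required for complete inhibition of growth.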

Key:
Test in all cases: NCI tumour cell line growth inhibition, 48 h
786-0 renal = test system: 786-0 renal
A498 renal = test system: A498 renal
A549 NSCLC = test system: A549 NSCLC
ACHN renal = test system: ACHN renal
BT-549 breast = test system: BT-549 breast
CAKI-1 renal = test system: CAKI-1 renal
CCRF-CEM leukemia = test system: CCRF-CEM leukemia
COLO 205 colon = test system: COLO 205 colon
DU-145 prostate = test system: DU-145 prostate
EKVX NSCLC = test system: EKVX NSCLC
HCC-2998 colon = test system: HCC-2998 colon
HCT-116 colon = test system: HCT-116 colon
HCT-15 colon = test system: HCT-15 colon
HL-60(TB) leukemia = test system: HL-60(TB) leukemia
HOP-62 NSCLC = test system: HOP-62 NSCLC
HOP-92 NSCLC = test system: HOP-92 NSCLC
HS 578T breast = test system: HS 578T breast
HT29 colon = test system: HT29 colon
IGROV1 ovarian = test system: IGROV1 ovarian
K-562 leukemia = test system: K-562 leukemia
KM12 colon = test system: KM12 colon
LOX IMVI melanoma = test system: LOX IMVI melanoma
M14 melanoma = test system: M14 melanoma
MALME-3M melanoma = test system: MALME-3M melanoma
MCF7 breast = test system: MCF7 breast
MDA-MB-231 breast = test system: MDA-MB-231 breast
MDA-MB-435 = test system: MDA-MB-435
MDA-N = test system: MDA-N
MOLT-4 leukemia = test system: MOLT-4 leukemia
NCI-H226 lung = test system: NCI-H226 lung
NCI-H23 lung = test system: NCI-H23 lung
NCI-H460 lung = test system: NCI-H460 lung
NCI-H522 lung = test system: NCI-H522 lung
NCI/ADR-RES ovarian = test system: NCI/ADR-RES ovarian
OVCAR-3 ovarian = test system: OVCAR-3 ovarian
OVCAR-4 ovarian = test system: OVCAR-4 ovarian
OVCAR-5 ovarian = test system: OVCAR-5 ovarian
OVCAR-8 ovarian = test system: OVCAR-8 ovarian
PC-3 prostate = test system: PC-3 prostate
RPMI-8226 leukemia = test system: RPMI-8226 leukemia
RXF 393 renal = test system: RXF 393 renal
SF-268 CNS = test system: SF-268 CNS
SF-295 CNS = test system: SF-295 CNS
SF-539 CNS = test system: SF-539 CNS
SK-MEL-2 melanoma = test system: SK-MEL-2 melanoma
SK-MEL-5 melanoma = test system: SK-MEL-5 melanoma
SK-OV-3 ovarian = test system: SK-OV-3 ovarian
SN12C renal = test system: SN12C renal
SNB-19 CNS = test system: SNB-19 CNS
SNB-75 CNS = test system: SNB-75 CNS
SR leukemia = test system: SR leukemia
SW-620 colon = test system: SW-620 colon
T-47D breast = test system: T-47D breast
TK-10 renal = test system: TK-10 renal
U251 CNS = test system: U251 CNS
UACC-257 melanoma = test system: UACC-257 melanoma
UACC-62 melanoma = test system: UACC-62 melanoma
UO-31 renal = test system: UO-31 renal
SK-MEL-28 melanoma = test system: SK-MEL-28 melanoma

CCOC(=O)/C(=C\c1ccc(F)cc1)C(C)=O
TGI (786-0 renal): 49.4 µM
TGI (A498 renal): 34.9 µM
TGI (A549 NSCLC): > 100 µM
TGI (ACHN renal): 50.7 µM
TGI (BT-549 breast): 51.4 µM
TGI (CAKI-1 renal): > 100 µM
TGI (CCRF-CEM leukemia): > 100 µM
TGI (COLO 205 colon): > 100 µM
TGI (DU-145 prostate): 56.8 µM
TGI (EKVX NSCLC): 83.6 µM
TGI (HCC-2998 colon): 26.6 µM
TGI (HCT-116 colon): 91.8 µM
TGI (HCT-15 colon): 44.2 µM
TGI (HL-60(TB) leukemia): 53.2 µM
TGI (HOP-62 NSCLC): > 100 µM
TGI (HOP-92 NSCLC): 44.3 µM
TGI (HS 578T breast): > 100 µM
TGI (HT29 colon): > 100 µM
TGI (IGROV1 ovarian): 38.9 µM
TGI (K-562 leukemia): > 100 µM
TGI (KM12 colon): 69 µM
TGI (LOX IMVI melanoma): 36.7 µM
TGI (M14 melanoma): 60.9 µM
TGI (MALME-3M melanoma): 43.1 µM
TGI (MCF7 breast): 96.6 µM
TGI (MDA-MB-231 breast): 52 µM
TGI (MDA-MB-435): > 100 µM
TGI (MDA-N): > 100 µM
TGI (MOLT-4 leukemia): 89 µM
TGI (NCI-H226 lung): 75.2 µM
TGI (NCI-H23 lung): 46 µM
TGI (NCI-H460 lung): 97.4 µM
TGI (NCI-H522 lung): 29.5 µM
TGI (NCI/ADR-RES ovarian): > 100 µM
TGI (OVCAR-3 ovarian): > 100 µM
TGI (OVCAR-4 ovarian): > 100 µM
TGI (OVCAR-5 ovarian): > 100 µM
TGI (OVCAR-8 ovarian): 94.6 µM
TGI (PC-3 prostate): 38.2 µM
TGI (RPMI-8226 leukemia): 53 µM
TGI (RXF 393 renal): 34.8 µM
TGI (SF-268 CNS): > 100 µM
TGI (SF-295 CNS): 79.3 µM
TGI (SF-539 CNS): > 100 µM
TGI (SK-MEL-2 melanoma): 41.2 µM
TGI (SK-MEL-5 melanoma): 47.1 µM
TGI (SK-OV-3 ovarian): > 100 µM
TGI (SN12C renal): > 100 µM
TGI (SNB-19 CNS): > 100 µM
TGI (SNB-75 CNS): 74.2 µM
TGI (SR leukemia): 64 µM
TGI (SW-620 colon): > 100 µM
TGI (T-47D breast): 63.9 µM
TGI (TK-10 renal): 52.3 µM
TGI (U251 CNS): 40.7 µM
TGI (UACC-257 melanoma): 44.7 µM
TGI (UACC-62 melanoma): 38.1 µM
TGI (UO-31 renal): 31.2 µM

Cc1ccc2nc(Cl)c(/C=N/N3C(=O)/C(=C/c4ccc(N(C)C)cc4)N=C3c3ccccc3)cc2c1
TGI (786-0 renal): > 100 µM
TGI (A498 renal): > 100 µM
TGI (A549 NSCLC): > 100 µM
TGI (ACHN renal): > 100 µM
TGI (BT-549 breast): > 100 µM
TGI (CAKI-1 renal): > 100 µM
TGI (CCRF-CEM leukemia): > 100 µM
TGI (COLO 205 colon): > 100 µM
TGI (DU-145 prostate): > 100 µM
TGI (EKVX NSCLC): > 100 µM
TGI (HCC-2998 colon): > 100 µM
TGI (HCT-116 colon): > 100 µM
TGI (HCT-15 colon): > 100 µM
TGI (HL-60(TB) leukemia): > 100 µM
TGI (HOP-62 NSCLC): > 100 µM
TGI (HOP-92 NSCLC): > 100 µM
TGI (HS 578T breast): > 100 µM
TGI (HT29 colon): > 100 µM
TGI (IGROV1 ovarian): > 100 µM
TGI (K-562 leukemia): > 100 µM
TGI (KM12 colon): > 100 µM
TGI (LOX IMVI melanoma): > 100 µM
TGI (M14 melanoma): > 100 µM
TGI (MCF7 breast): > 100 µM
TGI (MDA-MB-231 breast): > 100 µM
TGI (MDA-MB-435): 65.8 µM
TGI (MDA-N): 92.6 µM
TGI (MOLT-4 leukemia): 68.5 µM
TGI (NCI-H460 lung): > 100 µM
TGI (NCI/ADR-RES ovarian): > 100 µM
TGI (OVCAR-3 ovarian): 44.9 µM
TGI (OVCAR-4 ovarian): > 100 µM
TGI (OVCAR-5 ovarian): > 100 µM
TGI (OVCAR-8 ovarian): > 100 µM
TGI (PC-3 prostate): > 100 µM
TGI (RPMI-8226 leukemia): 65.3 µM
TGI (SF-268 CNS): > 100 µM
TGI (SF-295 CNS): > 100 µM
TGI (SF-539 CNS): 52.4 µM
TGI (SK-MEL-2 melanoma): 98.7 µM
TGI (SK-MEL-28 melanoma): > 100 µM
TGI (SK-MEL-5 melanoma): > 100 µM
TGI (SK-OV-3 ovarian): > 100 µM
TGI (SN12C renal): > 100 µM
TGI (SNB-19 CNS): > 100 µM
TGI (SNB-75 CNS): > 100 µM
TGI (SR leukemia): > 100 µM
TGI (SW-620 colon): > 100 µM
TGI (T-47D breast): > 100 µM
TGI (TK-10 renal): > 100 µM
TGI (U251 CNS): > 100 µM
TGI (UACC-257 melanoma): > 100 µM
TGI (UACC-62 melanoma): > 100 µM
TGI (UO-31 renal): > 100 µM
